US20100210564A1, “DRUG OR FOOD CONTAINING A PEPTIDE” (Kyoto University, priority 2009, published 2010)
“Also recorded” adds a separate entry of the source.

Experiments:
mice [1] = assay: Elevated plus-maze test, YL in combination with antagonists for various receptors; type: in vivo, mouse; details: in words
Excerpt: (§1) The elevated plus-maze (EPM) consisted of two open arms (25×5 cm) and two closed arms (25×5×15 cm), which were joined to a central platform 50 cm high above the floor (see FIG. 1). Because the closed arms were surrounded by fences, a mouse could safely walk in the closed arms irrespective of their elevated position. On the other hand, because the open arms were not surrounded by fences, a mouse walking along the open arms would feel anxious that it might fall down from the elevated position. Therefore, the more time the mouse spent in the open arms, or the greater the number of entries to the open arms, the less anxious the mouse was feeling; thus, the anxiolytic activity was determined based on these indices.
(§2) A mouse was placed on a portion of the central platform facing one of the open arms, and the test was started. During a test time of 5 minutes, the cumulative time spent in the open arms (abbr.: time in open arms), the number of visits to the open arms (abbr.: visit to open arms), and the total number of visits to any of the arms (abbr.: total visits) were recorded. The percentage of the time spent in the open arms and the percentage of the number of visits to the open arms were calculated as indices of anxiety.

mice [2] = assay: Elevated plus-maze test, anxiolytic effects; type: in vivo, mouse; details: for Minimum Effective Dose (mg/kg, i.p.): elevated plus-maze, ( ) = showed tendency, — = no anxiolytic effects
Experimental: In the present invention, the anxiolytic effects can be evaluated by the elevated plus-maze test, developed and widely used as a method for evaluating anxiety-related behaviors to screen anxiolytic drugs (FIG. 1). Specifically, the test is performed as follows: a candidate substance for an anxiolytic drug is orally or intraperitoneally administered to a mouse; 30 minutes after the administration, the mouse is placed in an elevated plus-maze; and the potency of the anxiolytic effects is evaluated based on the number of entries to the open arms and a change in the times spent on the open arms.
as §1, §2
The data obtained from the elevated plus-maze test were represented as the means±SEM. The data were analyzed by 1-way or 2-way ANOVA, followed by the Fisher test for multiple comparisons.
(§3) Each of YL (Example 1 and Comparative Example 3), FL (Example 2), YI (Example 3), FI (Example 4), LY (Example 5), LF (Example 6), IY (Example 7), IF (Example 8), YLY (Example 9), YLQ (Example 10), LYL (Example 11), YLYEIAR (Example 12), YV (Example 13), WL (Example 14), LW (Example 15), HL (Example 16), Y (Comparative Example 1), and Y, L (Comparative Example 2) dissolved in physiological saline was administered intraperitoneally (i.p.) or orally (p.o.) to mice (n=3 to 14) in the amounts shown in each figure before the mice were placed in the elevated plus-maze. The percentage of the time spent in the open arms, the percentage of the number of visits to the open arms, and the total number of visits to the arms (total visits) were compared among groups administered each peptide or amino acid, and a control group (0 mg/kg). YL was investigated for its anxiolytic effects by the open-field test. The results are shown in FIGS. 2 to 14, FIGS. 22 to 27, and Table 3.

mice [3] = assay: Open-field test; type: in vivo, mouse
Experimental: The open-field used in this experiment was a cylindrical gray apparatus with a diameter of 60 cm and a height of 50 cm, which is divided into 25 sections with black lines. […] However, once a mouse is administered an anxiolytic drug, the time spent in the circle at the center and the number of entries thereto increase.
as §3

ACE = ACE (Homo sapiens, UniProt P12821); assay: ACE inhibitory effects; type: biochemical; details: comparison of YL with IY
[4] = 0.1 mg/kg, i.p., mean ± SEM (n = 6), p < 0.05 vs cont.

ACE, sequence (P12821 30-1306, species assumed): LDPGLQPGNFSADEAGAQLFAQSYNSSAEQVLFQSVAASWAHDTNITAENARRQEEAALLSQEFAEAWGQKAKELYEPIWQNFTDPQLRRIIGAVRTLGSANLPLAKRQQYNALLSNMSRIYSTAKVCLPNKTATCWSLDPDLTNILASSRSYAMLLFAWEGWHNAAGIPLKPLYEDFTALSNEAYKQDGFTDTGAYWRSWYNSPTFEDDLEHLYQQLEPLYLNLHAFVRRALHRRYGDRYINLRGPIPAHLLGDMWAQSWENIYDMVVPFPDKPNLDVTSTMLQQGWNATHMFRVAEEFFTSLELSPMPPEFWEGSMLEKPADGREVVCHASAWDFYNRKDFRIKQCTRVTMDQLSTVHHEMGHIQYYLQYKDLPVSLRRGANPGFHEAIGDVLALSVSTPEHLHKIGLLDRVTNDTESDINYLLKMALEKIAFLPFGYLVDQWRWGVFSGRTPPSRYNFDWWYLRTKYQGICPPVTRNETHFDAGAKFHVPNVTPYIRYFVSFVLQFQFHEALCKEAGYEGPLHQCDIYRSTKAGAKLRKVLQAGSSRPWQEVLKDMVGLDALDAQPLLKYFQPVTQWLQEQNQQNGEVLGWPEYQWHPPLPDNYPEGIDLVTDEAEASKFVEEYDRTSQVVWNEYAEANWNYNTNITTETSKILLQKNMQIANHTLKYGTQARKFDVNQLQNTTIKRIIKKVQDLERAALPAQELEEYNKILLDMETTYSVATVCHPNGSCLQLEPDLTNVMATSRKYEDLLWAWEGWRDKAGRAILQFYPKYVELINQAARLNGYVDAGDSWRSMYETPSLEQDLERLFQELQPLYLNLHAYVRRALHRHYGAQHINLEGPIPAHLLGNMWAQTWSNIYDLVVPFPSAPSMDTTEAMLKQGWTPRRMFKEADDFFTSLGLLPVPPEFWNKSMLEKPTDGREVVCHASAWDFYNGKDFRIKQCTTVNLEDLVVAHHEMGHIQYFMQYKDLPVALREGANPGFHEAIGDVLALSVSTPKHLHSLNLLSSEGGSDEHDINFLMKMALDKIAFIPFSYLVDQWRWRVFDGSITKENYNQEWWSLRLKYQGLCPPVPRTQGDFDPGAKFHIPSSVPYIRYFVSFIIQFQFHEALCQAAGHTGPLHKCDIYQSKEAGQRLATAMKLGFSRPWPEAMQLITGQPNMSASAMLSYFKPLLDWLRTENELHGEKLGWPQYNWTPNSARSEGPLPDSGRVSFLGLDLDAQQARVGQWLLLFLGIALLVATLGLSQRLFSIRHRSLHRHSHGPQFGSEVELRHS

Compound	effect of the antagonist/inhibitor on the anxiolytic effects of the peptides of the invention (mice [1])	Minimum Effective Dose (mg/kg, i.p.) (mice [2])	other results
OC(CCCN1CCN(c2ncc(F)cn2)CC1)c1ccc(F)cc1 (stereo not shown) [BMY14802]	not blocked	–	–
CC(C)C[C@H](N)C(=O)O [L, Leu, reference compound]	–	–	anxiolytic effects in the elevated plus-maze experiment (in words) (mice [2]): no anxiolytic effects
COc1ccccc1N1CCN(CC(C(=O)NC(C)(C)C)c2ccccc2)CC1 (stereo not shown) [WAY100135]	blocked	–	–
N[C@@H](Cc1ccc(O)cc1)C(=O)O [Y, Tyr, reference compound]	–	–	anxiolytic effects in the elevated plus-maze experiment (in words) (mice [2]): no anxiolytic effects
CCOC(=O)c1ncn2c1CN(C)C(=O)c1cc(F)ccc1-2 [flumazenil]	significantly blocked	–	–
COc1ccc2c(c1)c(CC(=O)O)c(C)n2C(=O)c1ccc(Cl)cc1 [indomethacin]	not blocked	–	–
C=CCN1CC[C@]23c4c5ccc(O)c4O[C@H]2C(=O)CC[C@@]3(O)[C@H]1C5 [naloxone]	not blocked	–	–
Oc1ccc2c3c1O[C@H]1c4[nH]c5ccccc5c4C[C@@]4(O)[C@@H](C2)N(CC2CC2)CC[C@]314 [naltrindole]	not blocked	–	–
His-Leu [HL]	–	0.1 mg/kg	–
Ile-Tyr [IY]	–	10 mg/kg	–
Phe-Leu [FL]	–	0.1 mg/kg	–
Trp-Leu [WL]	–	0.1 mg/kg	–
Tyr-Leu [YL]	–	0.1 mg/kg	Time in Center Circle (%) (mice [3]; [4]): 2.06 ± 0.234 %; Visits to Center Circle (%) (mice [3]; [4]): 3.02 ± 0.404 %; efficacy in the open-field test (in words) (mice [3]; mice): demonstrated its efficacy; anxiolytic effects in the elevated plus-maze experiment (in words) (mice [2]): stronger anxiolytic effects; also recorded: at least equivalent to those of diazepam; ACE inhibitory effects (ACE): weaker than those of IY
YLYEIAR [peptide; Y Tyr, L Leu, E Glu, I Ile, A Ala, R Arg]	–	0.3 mg/kg	–
